According to PubChem BioAssay AID1259411 (Chemical Carcinogenesis Research Information System (CCRIS), 2018):
Active and inactive are the calls of the source. The rule behind the calls is not given here.

System: rodent carcinogenicity bioassays, tumor incidence
Assay: CCRIS carcinogenicity studies
How it was run: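 NCI-built, expert-reviewed records of carcinogenicity and related test outcomes (mutagenicity, tumor promotion/inhibition) compiled from published and report sources, historical span 1985-2011, not updated.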

For `NC(N)=NC(N)=NCCc1ccccc1`, the carcinogen call (Species: MOUSE, Strain/Sex: B6C3F1/FEMALE, Route: ORAL, Dose: 0, 1200, 2500 PPM IN DIET, Dose: 0, 1200, 2500 PPM IN DIET) was “inactive; negative”, the carcinogen call (Species: MOUSE, Strain/Sex: B6C3F1/MALE, Route: ORAL, Dose: 0, 1200, 2500 PPM IN DIET, Dose: 0, 1200, 2500 PPM IN DIET) was “inactive; negative” and the carcinogen call (Species: RAT, Strain/Sex: F344/FEMALE, Route: ORAL, Dose: 0, 15000, 30000 PPM IN DIET, Dose: 0, 15000, 30000 PPM IN DIET) was “inactive; negative”. For the same compound, the carcinogen call (Species: RAT, Strain/Sex: F344/MALE, Route: ORAL, Dose: 0, 15000, 30000 PPM IN DIET, Dose: 0, 15000, 30000 PPM IN DIET) was “inactive; negative”.

`[O-]/[N+](=N\O)c1ccccc1` was tested, and the carcinogen call (Species: MOUSE, Strain/Sex: B6C3F1/FEMALE, Route: ORAL, Dose: 0, 0.2, 0.4% TWA, IN DIET FOR 78 WK (STUDY DURATION: 95-98 WK), Dose: 0, 0.2, 0.4% TWA, IN DIET FOR 78 WK (STUDY DURATION: 95-98 WK), Tumor Site: Type of Lesion: CIRCULATORY SYSTEM: HEMANGIOSARCOMA OR HEMANGIOMA, LIVER: HEPATOCELLULAR CARCINOMA, HEPATOCELLULAR ADENOMA OR CARCINOMA;, Tumor Site: Type of Lesion: CIRCULATORY SYSTEM: HEMANGIOSARCOMA OR HEMANGIOMA, LIVER: HEPATOCELLULAR CARCINOMA, HEPATOCELLULAR ADENOMA OR CARCINOMA) was “active; positive”, the carcinogen call (Species: MOUSE, Strain/Sex: B6C3F1/MALE, Route: ORAL, Dose: 0, 0.2, 0.4% TWA, IN DIET FOR 78 WK (STUDY DURATION: 95-98 WK), Dose: 0, 0.2, 0.4% TWA, IN DIET FOR 78 WK (STUDY DURATION: 95-98 WK), Tumor Site: Type of Lesion: CIRCULATORY SYSTEM: HEMANGIOSARCOMA) was “active; positive” and the carcinogen call (Species: RAT, Strain/Sex: F344/FEMALE, Route: ORAL, Dose: 0, 0.15, 0.30% IN DIET FOR 78 WK (STUDY DURATION: 106-110 WK), Dose: 0, 0.15, 0.30% IN DIET FOR 78 WK (STUDY DURATION: 106-110 WK), Tumor Site: Type of Lesion: CIRCULATORY SYSTEM: HEMANGIOSARCOMA, LIVER: HEPATOCELLULAR CARCINOMA, HEPATOCELLULAR CARCINOMA OR NEOPLASTIC NODULE, STO, Tumor Site: Type of Lesion: CIRCULATORY SYSTEM: HEMANGIOSARCOMA, LIVER: HEPATOCELLULAR CARCINOMA, HEPATOCELLULAR CARCINOMA OR NEOPLASTIC NODULE, STO) was “active; positive”. The carcinogen call (Species: RAT, Strain/Sex: F344/MALE, Route: ORAL, Dose: 0, 0.15, 0.30% IN DIET FOR 78 WK (STUDY DURATION: 97-110 WK), Dose: 0, 0.15, 0.30% IN DIET FOR 78 WK (STUDY DURATION: 97-110 WK), Tumor Site: Type of Lesion: CIRCULATORY SYSTEM: HEMANGIOSARCOMA, LIVER: HEPATOCELLULAR CARCINOMA OR NEOPLASTIC NODULE, STOMACH: SQUAMOUS CELL CARCIN, Tumor Site: Type of Lesion: CIRCULATORY SYSTEM: HEMANGIOSARCOMA, LIVER: HEPATOCELLULAR CARCINOMA OR NEOPLASTIC NODULE, STOMACH: SQUAMOUS CELL CARCIN) was “active; positive”.

For `CCN(Cc1cccc(S(=O)(=O)[O-])c1)c1ccc(C(=C2C=CC(=[N+](C)C)C=C2)c2ccc(N(CC)Cc3cccc(S(=O)(=O)O)c3)cc2)cc1`, the carcinogen call (Species: MOUSE, Strain/Sex: SWISS-WEBSTER/FEMALE, Route: DERMAL, Dose: 0, 1% IN 0.1 ML DISTILLED WATER 1/WK FOR 18 MO (STUDY DURATION: 18 MO)) was “inactive; negative”, the carcinogen call (Species: MOUSE, Strain/Sex: SWISS-WEBSTER/MALE, Route: DERMAL, Dose: 0, 1% IN 0.1 ML DISTILLED WATER 1/WK FOR 18 MO (STUDY DURATION: 18 MO)) was “inactive; negative” and the carcinogen call (Species: RAT, Route: ORAL, Tumor Site: Type of Lesion: MAMMARY GLAND, INTEGUMENTARY SYSTEM (SKIN)) was “active; positive”. The carcinogen call (Species: RAT, Route: SUBCUTANEOUS, Tumor Site: Type of Lesion: INJECTION SITE) was “active; positive”.

In the case of `CC(C)OS(C)(=O)=O`, the carcinogen call (Species: MOUSE, Strain/Sex: ICR/FEMALE, Route: SUBCUTANEOUS, Dose: 0, 10 UMOL/MOUSE IN TRIOCTANOIN INTO LEFT FLANK, 1/WK FOR 139 D (STUDY DURATION: 139 D), Tumor Site: Type of Lesion: THYMUS GLAND: LYMPHOMA) was “active; positive”.

With `ClC(Cl)=C(c1ccc(Cl)cc1)c1ccc(Cl)cc1` the carcinogen call (Species: MOUSE, Strain/Sex: B6C3F1/FEMALE, Route: ORAL, Dose: 0, 148, 261 PPM IN DIET, TWA, Dose: 0, 148, 261 PPM IN DIET, TWA, Tumor Site: Type of Lesion: LIVER: HEPATOCELLULAR CARCINOMA) was “active; positive”, the carcinogen call (Species: MOUSE, Strain/Sex: B6C3F1/MALE, Route: ORAL, Dose: 0, 148, 261 PPM IN DIET, TWA, Dose: 0, 148, 261 PPM IN DIET, TWA, Tumor Site: Type of Lesion: LIVER: HEPATOCELLULAR CARCINOMA) was “active; positive” and the carcinogen call (Species: MOUSE, Strain/Sex: CF-1/MALE,FEMALE, Route: ORAL, Dose: 250 PPM IN DIET, Tumor Site: Type of Lesion: LIVER: HEPATOMA) was “active; positive”. The carcinogen call (Species: RAT, Strain/Sex: OSBORNE-MENDEL/FEMALE, Route: ORAL, Dose: 0, 242, 462 PPM IN DIET, TWA, Dose: 0, 242, 462 PPM IN DIET, TWA) was “inactive; negative” and the carcinogen call (Species: RAT, Strain/Sex: OSBORNE-MENDEL/MALE, Route: ORAL, Dose: 0, 437, 839 PPM IN DIET, TWA, Dose: 0, 437, 839 PPM IN DIET, TWA) was “inactive; negative”.

With `O=C1OC(O)C(C(Cl)Cl)=C1Cl` (centres undefined) the carcinogen call (Species: RAT, Strain/Sex: WISTAR/FEMALE, Route: ORAL, Dose: 0, 0.6, 1.9, 6.6 MG/KG BW IN DRINKING WATER FOR 104 WK (STUDY DURATION: 104 WK), Dose: 0, 0.6, 1.9, 6.6 MG/KG BW IN DRINKING WATER FOR 104 WK (STUDY DURATION: 104 WK), Tumor Site: Type of Lesion: MAMMARY GLAND: ADENOCARCINOMA, FIBROADENOMA, HEMATOPOIETIC SYSTEM: LYMPHOMA OR LEUKEMIA, LIVER: CHOLANGIOMA, ADENOMA, AD, Tumor Site: Type of Lesion: MAMMARY GLAND: ADENOCARCINOMA, FIBROADENOMA, HEMATOPOIETIC SYSTEM: LYMPHOMA OR LEUKEMIA, LIVER: CHOLANGIOMA, ADENOMA, AD) was “active; positive” and the carcinogen call (Species: RAT, Strain/Sex: WISTAR/MALE, Route: ORAL, Dose: 0, 0.4, 1.3, 5 MG/KG BW IN DRINKING WATER FOR 104 WK (STUDY DURATION: 104 WK), Dose: 0, 0.4, 1.3, 5 MG/KG BW IN DRINKING WATER FOR 104 WK (STUDY DURATION: 104 WK), Tumor Site: Type of Lesion: SKIN (SUBCUTANEOUS TISSUE): BASAL CELL TUMOR, LUNG: ALVEOLAR/BRONCHIOLAR ADENOMA, LIVER: CHOLANGIOMA,ADENOMA, PANCREAS (, Tumor Site: Type of Lesion: SKIN (SUBCUTANEOUS TISSUE): BASAL CELL TUMOR, LUNG: ALVEOLAR/BRONCHIOLAR ADENOMA, LIVER: CHOLANGIOMA,ADENOMA, PANCREAS () was “active; positive”.

With `CN(C)c1ccc2nc3ccc(=[N+](C)C)cc-3sc2c1` the carcinogen call (Species: Mouse, Strain/Sex: B6C3F1/Female, Route: Oral, Dose: 0, 2.5, 12.5, 25 mg/kg 5 d per wk for 2 yr, Dose: 0, 2.5, 12.5, 25 mg/kg 5 d per wk for 2 yr, Tumor Site: Type of Lesion: Lymphatic system: Malignant lymphomas (6/50; 4/50; 9/50; 12/50) (Marginal increase)) was “equivocal”, the carcinogen call (Species: Mouse, Strain/Sex: B6C3F1/Male, Route: Oral, Dose: 0, 2.5, 12.5, 25 mg/kg 5 d per wk for 2 yr, Dose: 0, 2.5, 12.5, 25 mg/kg 5 d per wk for 2 yr, Tumor Site: Type of Lesion: Small intestine: Carcinomas (0/50; 1/50; 2/50; 4/50), Adenomas or carcinomas (1/50; 2/50; 4/50; 6/50) (incidences not st, Tumor Site: Type of Lesion: Small intestine: Carcinomas (0/50; 1/50; 2/50; 4/50), Adenomas or carcinomas (1/50; 2/50; 4/50; 6/50) (incidences not st) was “active; positive (for lymphoma only at high does) (ntp describes results as some evidenc” and the carcinogen call (Species: Rat, Strain/Sex: F344/Female, Route: Oral, Dose: 0, 5, 25, 50 mg/kg 5 d per wk for 2 yr, Dose: 0, 5, 25, 50 mg/kg 5 d per wk for 2 yr) was “inactive; negative”. The carcinogen call (Species: Rat, Strain/Sex: F344/Male, Route: Oral, Dose: 0, 5, 25, 50 mg/kg 5 d per wk for 2 yr, Dose: 0, 5, 25, 50 mg/kg 5 d per wk for 2 yr, Tumor Site: Type of Lesion: Pancreas: Pancreatic islet adenomas (4/50; 9/50; 12/50; 8/50), Pancreatic islet adenomas or carcinomas (4/50, 9/50, 14/5, Tumor Site: Type of Lesion: Pancreas: Pancreatic islet adenomas (4/50; 9/50; 12/50; 8/50), Pancreatic islet adenomas or carcinomas (4/50, 9/50, 14/5) was “active; positive (statistically significant only at 25 mg/kg dose) (ntp describes as som”.
